Measured values reported in patent US9303027B2 (dated 2016).

| Compound | melting point |
| --- | --- |
| COc1cccc([C@@H](CN2CCCC2)NC(=O)C2(c3ccc4oc(=O)[nH]c4c3)CC2)c1 | 92 to 94 °C |
| O=C(N[C@H](CN1CC[C@H](O)C1)c1ccccc1)C1(c2ccc3oc(=O)[nH]c3c2)CC1 | 142 to 144 °C |
| Cl.O=C(O)Cn1c(=O)oc2ccc(C3(C(=O)N[C@H](CN4CCCC4)c4ccccc4)CC3)cc21 | 166 to 168 °C |
| NC(=O)c1cccc([C@@H](CN2CCCC2)NC(=O)C2(c3ccc4oc(=O)[nH]c4c3)CC2)c1 | 139 to 141 °C |
| CS(=O)(=O)Nc1cccc(C2(C(=O)N[C@H](CN3CCCC3)c3cccc(OCC(=O)O)c3)CC2)c1 | 160 to 162 °C |
| O=C(N[C@H](CN1CCCC1)c1cccc(-c2nn[nH]n2)c1)C1(c2ccc3oc(=O)[nH]c3c2)CC1 | 107 to 109 °C |
| COc1cccc([C@@H](CN2CC[C@H](O)C2)NC(=O)C2(c3ccc4oc(=O)[nH]c4c3)CC2)c1 | 125 to 127 °C |
| COC(=O)c1ccc(Cn2c(=O)oc3ccc(C4(C(=O)N[C@H](CN5CCCC5)c5cccc(O)c5)CC4)cc32)cc1 | 119 to 120 °C |
| O=C(N[C@H](CN1CC[C@H](O)C1)c1cccc([N+](=O)[O-])c1)C1(c2ccc3oc(=O)[nH]c3c2)CC1 | 224 to 226 °C |
| O=C1Cc2ccc(C3(C(=O)N[C@H](CN4CCCC4)c4ccccc4)CC3)cc2N1 | 115 to 118 °C |
| CN(C(=O)C1(c2ccccc2)CCC1)[C@H](CN1CCCC1)c1ccccc1.Cl | 234 to 235 °C |
| O=C(N[C@H](CN1CCCC1)c1ccccc1)C1(c2nc3ccccc3s2)CC1 | 97 to 99 °C |
| CS(=O)(=O)Nc1ccc(C2(C(=O)N[C@H](CN3CCCC3)c3ccccc3)CC2)cc1 | 165 to 168 °C |
| Cl.O=C(N[C@H](CN1CCCC1)c1ccccc1)C1(c2cccc(O)c2)CC1 | 80 to 82 °C |
| CS(=O)(=O)Oc1ccc(C2(C(=O)N[C@H](CN3CC[C@H](O)C3)c3ccccc3)CC2)cc1.Cl | 60 to 62 °C |
| CN(C(=O)C1(c2ccccc2)CCCCC1)[C@H](CN1CCCC1)c1ccccc1.Cl | 232 to 233 °C |

| Compound | melting point |
| --- | --- |
| CN(C(=O)C1(c2ccccc2)CC1)[C@H](CN1CCCC1)c1ccccc1.Cl | 216 to 217 °C |
| O=C(N[C@H](CN1CC[C@H](O)C1)c1ccccc1)C1(c2ccncc2)CC1 | 112 to 114 °C |
| CN(C(=O)C1(c2cnc3ccccc3c2)CC1)[C@H](CN1CCCC1)c1ccccc1.Cl | 223 to 225 °C |
| CS(=O)(=O)c1cccc(C2(C(=O)N[C@H](CN3CCCC3)c3ccccc3)CC2)c1.Cl | 68 to 70 °C |
| O=C(N[C@H](CN1CCCC1)c1ccccc1)C1(c2ccc3[nH]c(=O)ccc3c2)CC1 | 171 to 172 °C |
| CS(=O)(=O)Nc1cc(C2(C(=O)N[C@H](CN3CCCC3)c3ccccc3)CC2)ccc1Cl | 280 to 281 °C |
| CN[C@H]1CCN(C[C@@H](NC(=O)C2(c3cccc(NS(C)(=O)=O)c3)CC2)c2ccccc2)C1 | 80.6 to 80.8 °C |
| O=C(N[C@H](CN1CCCC1)c1ccccc1)C1(c2ccc3c(c2)NS(=O)(=O)O3)CC1 | 239 to 241 °C |
| Cl.O=C(N[C@H](CN1CCCC1)c1ccccc1)C1(c2cccnc2)CC1 | 150 to 152 °C |
| CS(=O)(=O)Nc1cccc(C2(C(=O)N[C@@H](CN3CCCC3)c3cccc(OCc4ccccc4)c3)CC2)c1 | 70 to 72 °C |
| CS(=O)(=O)Nc1cccc(C2(C(=O)N[C@@H](CN3CCCC3)c3cccc(O)c3)CC2)c1 | 103 to 105 °C |
| O=C(N[C@H](CN1CCCC1)c1ccccc1)C1(c2ccc3c(c2)NS(=O)(=O)C3)CC1 | 138 to 140 °C |
| Cl.O=C(N[C@H](CN1CCCC1)c1ccccc1)C1(c2ccccn2)CC1 | 107.1 to 107.3 °C |
| CS(=O)(=O)Nc1ccc(C2(C(=O)N[C@H](CN3CCCC3)c3ccccc3)CC2)cn1 | 182.2 to 182.4 °C |
| O=C(N[C@H](CN1CCCC1)c1ccccc1)C1(c2ccc3c(c2)C=CS(=O)(=O)N3)CC1 | 163 to 165 °C |
| O=C(N[C@H](CN1CCCC1)c1ccccc1)C1(c2ccc3oncc3c2)CC1 | 129 to 130 °C |
